Literature values as cited in patent US9630917B2, “Cysteamine prodrugs, pharmaceutical compositions thereof, and methods of use” (priority 2015, dated 2017).

Conditions: oral absorption; Smolin et al., Ped Res. 1988; 23, 616-620

absolute bioavailability: about 10%
SMILES: NCCS [cysteamine]
